Laboratory results reported in PubChem BioAssay (NCI).
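Each compound was tested at five concentrations against cells in 96-well plates for 48 hours. Here, GI50 denotes the concentration required for 50% inhibition of growth. TGI: concentration producing complete growth inhibition.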

Assays:
Assay in all cases: NCI tumour cell line growth inhibition, 48 h
[1] = system: KM12 colon
[2] = system: SK-MEL-5 melanoma
[3] = system: HCT-116 colon
[4] = system: HOP-62 NSCLC
[5] = system: HCC-2998 colon
[6] = system: CCRF-CEM leukemia
[7] = system: HL-60(TB) leukemia
[8] = system: MDA-MB-231 breast
[9] = system: HOP-92 NSCLC
[10] = system: HS 578T breast

Structure (SMILES)	TGI [1]	TGI [2]	TGI [3]	TGI [4]	TGI [5]	TGI [6]	TGI [7]	GI50 [1]	GI50 [2]	GI50 [3]	GI50 [4]	GI50 [8]	TGI [8]	GI50 [5]	GI50 [6]	GI50 [7]	GI50 [9]	TGI [9]	TGI [10]	GI50 [10]
CC1CCSC(N(C(=O)N(C)c2ccccc2)c2ccccc2)=N1 (centres undefined)	> 100 µM	> 100 µM	> 100 µM	> 100 µM	> 100 µM	> 100 µM	> 100 µM													
NNC(=O)C(=O)N/N=C1\CCC(=O)CC1C(=O)CCC(=O)Nc1ccc(Cl)cc1 (centres undefined)	> 100 µM	> 100 µM	> 100 µM		> 100 µM	> 100 µM	> 100 µM													
c1ccc2c(-c3nc(-c4c[nH]c5ccncc45)cs3)c[nH]c2c1	4.4 µM	2.99 µM	3.19 µM	4.27 µM	3.42 µM	3.52 µM	4.73 µM	2020 nM	1600 nM	1710 nM	1710 nM	1060 nM	2.53 µM	1870 nM	1440 nM	2020 nM	1440 nM	3.28 µM		
Cc1ccc(N=Nc2c(O)ccc3ccccc23)cc1	> 100 µM	> 100 µM	> 100 µM	> 100 µM		75.8 µM							> 100 µM					> 100 µM	> 100000 nM	
C=CCC1=C(C)C[C@@H]2CCC(=O)C=C12	> 100 µM	> 100 µM	> 100 µM	> 100 µM		> 100 µM	> 100 µM											> 100 µM		
CCOC(=O)N1CCc2cc(OC)c(OC)cc2/C1=C\c1ccc(OC)c(OC)c1	85.6 µM		40.4 µM	> 100 µM	> 100 µM	72 µM	53.1 µM											56.1 µM		
Cc1c(NC(=S)NC(=O)c2ccc([N+](=O)[O-])cc2)c(=O)n(-c2ccccc2)n1C	> 100 µM	> 100 µM	> 100 µM	> 100 µM	> 100 µM	> 100 µM	> 100 µM											> 100 µM		
CCCC(=O)N[C@H]1C2C3CC4C5CC(C42)C1(C)C53 (some centres undefined)	> 100 µM	> 100 µM	> 100 µM	> 100 µM	> 100 µM	> 100 µM	> 100 µM											> 100 µM		
CC(C)CCCC(C)[C@H]1CCC2[C@@H]3CCC4Nc5c(cnn5-c5ccccc5)C[C@]4(C)C3CC[C@@]21C (some centres undefined)	> 100 µM	> 100 µM	> 100 µM	45.7 µM	> 100 µM	> 100 µM	> 100 µM													
O=C(O)CCNCCCCNCCC(=O)O	> 100 µM	> 100 µM	> 100 µM	> 100 µM	> 100 µM	> 100 µM	> 100 µM											> 100 µM		
c1ccc2c(c1)SCCCSCCSCCCS2	> 100 µM	> 100 µM	> 100 µM	> 100 µM	> 100 µM	> 100 µM	> 100 µM						> 100 µM					> 100 µM		
c1ccc2c(c1)oc1ccc3nsnc3c12	> 100 µM	> 100 µM	> 100 µM		> 100 µM	> 100 µM	> 100 µM											> 100 µM		
O=C(Nc1ccc(-c2nc(-c3cccc(OCCN4CCOCC4)c3)c(-c3ccnc(Br)c3)[nH]2)cc1)c1ccccc1		3.21 µM	> 100 µM		> 100 µM	> 100 µM			1770 nM	2580 nM		2840 nM	> 100 µM	2760 nM	2180 nM		2010 nM	8.16 µM	885 nM	267 nM
CCOC(=O)CCn1ncc(Cl)c(Cl)c1=O	20 µM	25.3 µM	24.2 µM	39.8 µM	10.4 µM	9.76 µM	6.49 µM											26.2 µM		
C=CCO/N=C(\OC(=O)c1ccc([N+](=O)[O-])cc1)c1ccccc1	> 100 µM	> 100 µM		> 100 µM	> 100 µM	> 100 µM												> 100 µM		
N/N=C1\C(=O)N(c2ccc(Cl)cc2Cl)C(=O)C(=O)C1c1nc2ccccc2o1 (centres undefined)	> 100 µM	> 100 µM	> 100 µM	> 100 µM	> 100 µM	> 100 µM	> 100 µM											> 100 µM		
Cc1cccc(C)c1NC(=O)CCc1nc(=S)[nH][nH]1			> 100 µM	> 100 µM	> 100 µM	> 100 µM	> 100 µM											> 100 µM		
C[C@]12CC[C@H](O)CC1=CC[C@@H]1C2CC[C@]2(C)Nc3c(cnn3-c3ccccc3)CC12 (some centres undefined)	5.13 µM	12.4 µM	12.2 µM	8.81 µM	22.3 µM	10.8 µM	7 µM													
